Results: PMC10283505, “CVM-1118 (foslinanib), a 2-phenyl-4-quinolone derivative, promotes apoptosis and inhibits vasculogenic mimicry via targeting TRAP1” (Pathology and Oncology Research, 2023)

Test system: HT-29 colorectal adenocarcinoma cells
Experiment: Flow cytometry cell cycle analysis (PI)
Assay type: cell-based, human
Conditions: 48 h
Protocol: This assay was conducted by ProQinase GmbH (Freiburg, Germany). HT-29 colorectal adenocarcinoma cells were seeded at 150,000 cells/well in 6-well cell culture plates in 5 mL complete medium and incubated at 37°C overnight. On the day of the assay, CVM-1118 at various concentrations or 0.1% DMSO were added to the cells. After 48 h incubation, cells were harvested including the supernatant, fixed in 80% methanol, and stored at −20°C overnight. The next day, cells were rehydrated in PBS for 30 min and treated with RNAse A (100 μg/mL) and propidium iodide (PI) (25 μg/mL). Cell cycle distribution was analyzed by flow cytometry (FACSCalibur, BD Biosciences), assessing approximately 10,000 events. Detection of DNA intercalated with PI was done by fluorescence detector FL3, in which amplification was set in such a manner that the first amplitude peak of the FL3 signal (FL3-A) in untreated cells (corresponding to the G1 cell population) was found at approximately 200 units. For analysis, events were plotted as histogram. The peak at ∼200 units was defined as cells in G1, events below the G1-peak were considered apoptotic cells (sub-G1), and events at ∼400 units as G2/M cells. All signals in between 200 and 400 units were defined as cells in S-Phase, and those beyond 400 units as endoreduplicated cells (endoR).

In the case of `COc1ccc2[nH]c(-c3cccc(F)c3)cc(=O)c2c1OP(=O)(O)O` [CVM-1118], the “Cell cycle profile, EndoR” value (HT-29, 10 nM) was 1.28%, the “Cell cycle profile, G1 phase” value (HT-29, 10 nM) was 49.34% and the “Cell cycle profile, G2/M phase” value (HT-29, 10 nM) was 25.66%. The “Cell cycle profile, S phase” value (HT-29, 10 nM) was 23.02%, the “Cell cycle profile, Sub-G1” value (HT-29, 10 nM) was 1.24% and the “Cell cycle profile, EndoR” value (HT-29, 30 nM) was 1.23%. The “Cell cycle profile, G1 phase” value (HT-29, 30 nM) was 50.63%, the “Cell cycle profile, G2/M phase” value (HT-29, 30 nM) was 23.71% and the “Cell cycle profile, S phase” value (HT-29, 30 nM) was 23.30%. The “Cell cycle profile, Sub-G1” value (HT-29, 30 nM) was 1.44%, the “Cell cycle profile, EndoR” value (HT-29, 100 nM) was 2.84% and the “Cell cycle profile, G1 phase” value (HT-29, 100 nM) was 16.27%. For the same compound, the “Cell cycle profile, G2/M phase” value (HT-29, 100 nM) was 43.42%, the “Cell cycle profile, S phase” value (HT-29, 100 nM) was 10.90% and the “Cell cycle profile, Sub-G1” value (HT-29, 100 nM) was 26.96%. The “Cell cycle profile, EndoR” value (HT-29, 300 nM) was 2.45%, the “Cell cycle profile, G1 phase” value (HT-29, 300 nM) was 1.58% and the “Cell cycle profile, G2/M phase” value (HT-29, 300 nM) was 50.77%. For the same compound, the “Cell cycle profile, S phase” value (HT-29, 300 nM) was 23.63% and the “Cell cycle profile, Sub-G1” value (HT-29, 300 nM) was 22.46%.
